Laboratory results published in ChEMBL document CHEMBL4507301 (2021).

Assays:
[1] = target: Alpha-1D adrenergic receptor (Rattus norvegicus) (UniProt P23944); assay: Inhibition of phenylephrine-induced contractions in bladder strips from rats with bladder outlet obstruction; format: tissue-based; details: Urinary bladder
[2] = target: T1, Alpha-2C adrenergic receptor (Homo sapiens) (UniProt P18825); assay: alpha2C Eurofins-Panlabs ligand profiling; details: Compound concentration 10.0 uM
T1 sequence (whole entry): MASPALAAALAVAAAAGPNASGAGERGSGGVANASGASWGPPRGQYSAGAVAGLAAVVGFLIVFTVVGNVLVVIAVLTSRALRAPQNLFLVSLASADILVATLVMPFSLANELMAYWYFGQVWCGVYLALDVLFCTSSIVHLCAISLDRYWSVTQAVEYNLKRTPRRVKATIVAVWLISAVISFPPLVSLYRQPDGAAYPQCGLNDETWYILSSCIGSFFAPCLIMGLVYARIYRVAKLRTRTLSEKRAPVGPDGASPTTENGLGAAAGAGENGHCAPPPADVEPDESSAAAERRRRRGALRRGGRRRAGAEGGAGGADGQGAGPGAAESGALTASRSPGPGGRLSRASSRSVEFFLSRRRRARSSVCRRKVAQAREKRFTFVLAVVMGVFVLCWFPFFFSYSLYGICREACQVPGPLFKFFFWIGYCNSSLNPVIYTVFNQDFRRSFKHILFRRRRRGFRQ

[3] = target: Beta-1 adrenergic receptor (Homo sapiens) (UniProt P08588); assay: beta1 Eurofins-Panlabs ligand profiling; details: Compound concentration 10.0 uM
[4] = target: Alpha-1A adrenergic receptor (Homo sapiens, UniProt P35348); assay: GPCRScan assay: inhibition of Alpha1A; parameters: radioligand conc. used [nm] 0.2 - 1.0, parental cells stable HEK
[5] = target: Alpha-1B adrenergic receptor (Homo sapiens, UniProt P35368); assay: Binding assay (ADRA1B)
Alpha-1B adrenergic receptor, sequence (P35368 whole entry): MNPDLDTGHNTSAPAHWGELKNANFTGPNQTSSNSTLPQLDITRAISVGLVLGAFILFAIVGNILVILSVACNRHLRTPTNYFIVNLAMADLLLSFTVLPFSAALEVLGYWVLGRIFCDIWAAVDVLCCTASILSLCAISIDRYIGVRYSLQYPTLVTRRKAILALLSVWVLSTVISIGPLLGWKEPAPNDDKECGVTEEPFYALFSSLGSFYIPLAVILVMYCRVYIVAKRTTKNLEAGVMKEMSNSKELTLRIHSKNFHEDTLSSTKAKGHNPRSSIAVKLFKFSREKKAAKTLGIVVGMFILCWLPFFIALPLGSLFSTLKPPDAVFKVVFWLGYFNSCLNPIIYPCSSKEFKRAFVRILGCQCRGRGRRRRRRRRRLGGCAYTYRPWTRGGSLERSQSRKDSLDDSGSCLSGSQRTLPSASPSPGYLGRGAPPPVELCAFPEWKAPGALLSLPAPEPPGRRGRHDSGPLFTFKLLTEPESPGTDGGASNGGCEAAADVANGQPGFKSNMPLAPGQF

Alpha-1A adrenergic receptor, sequence (P35348 whole entry): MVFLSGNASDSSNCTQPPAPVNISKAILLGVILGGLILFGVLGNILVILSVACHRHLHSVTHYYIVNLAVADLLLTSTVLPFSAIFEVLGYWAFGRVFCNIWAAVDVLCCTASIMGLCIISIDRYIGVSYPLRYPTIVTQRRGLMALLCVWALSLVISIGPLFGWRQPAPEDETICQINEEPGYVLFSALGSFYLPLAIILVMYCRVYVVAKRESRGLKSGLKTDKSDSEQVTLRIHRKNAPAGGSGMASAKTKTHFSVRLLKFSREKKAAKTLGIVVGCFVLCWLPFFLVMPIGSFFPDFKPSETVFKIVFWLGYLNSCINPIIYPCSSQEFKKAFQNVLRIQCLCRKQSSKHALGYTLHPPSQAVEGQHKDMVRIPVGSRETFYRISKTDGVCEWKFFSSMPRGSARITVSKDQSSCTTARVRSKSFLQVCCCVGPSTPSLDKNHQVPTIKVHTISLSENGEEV
Alpha-1D adrenergic receptor (Rattus norvegicus), sequence (P23944 whole entry): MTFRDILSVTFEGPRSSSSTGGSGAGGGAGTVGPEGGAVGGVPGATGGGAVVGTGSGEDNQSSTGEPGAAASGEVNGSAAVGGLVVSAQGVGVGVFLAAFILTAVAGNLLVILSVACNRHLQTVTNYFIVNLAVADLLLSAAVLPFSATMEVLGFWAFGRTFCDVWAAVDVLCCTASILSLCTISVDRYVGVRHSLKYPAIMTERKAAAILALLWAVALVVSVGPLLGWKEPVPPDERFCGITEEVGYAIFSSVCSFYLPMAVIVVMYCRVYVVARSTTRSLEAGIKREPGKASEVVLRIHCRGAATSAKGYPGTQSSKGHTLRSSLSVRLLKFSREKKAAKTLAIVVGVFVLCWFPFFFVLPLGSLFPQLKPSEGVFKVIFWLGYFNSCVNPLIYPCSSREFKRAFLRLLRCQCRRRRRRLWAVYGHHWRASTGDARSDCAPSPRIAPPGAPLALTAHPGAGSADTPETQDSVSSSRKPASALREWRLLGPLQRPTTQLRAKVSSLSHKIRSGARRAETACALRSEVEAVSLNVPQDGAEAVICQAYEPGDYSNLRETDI
Beta-1 adrenergic receptor (Homo sapiens), sequence (P08588 whole entry, looked up): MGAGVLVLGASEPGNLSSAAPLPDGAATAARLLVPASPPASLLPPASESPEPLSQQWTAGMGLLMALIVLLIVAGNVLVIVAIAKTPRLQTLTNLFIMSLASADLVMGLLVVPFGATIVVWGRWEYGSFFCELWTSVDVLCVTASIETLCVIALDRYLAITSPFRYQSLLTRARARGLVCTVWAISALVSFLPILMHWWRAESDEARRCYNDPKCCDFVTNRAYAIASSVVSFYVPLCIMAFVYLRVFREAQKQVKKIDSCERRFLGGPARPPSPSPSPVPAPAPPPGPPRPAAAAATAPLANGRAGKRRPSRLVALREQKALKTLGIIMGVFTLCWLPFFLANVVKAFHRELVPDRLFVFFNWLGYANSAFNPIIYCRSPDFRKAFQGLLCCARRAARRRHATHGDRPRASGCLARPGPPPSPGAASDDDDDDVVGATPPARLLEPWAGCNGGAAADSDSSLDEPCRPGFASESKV

Structure (SMILES): C[C@H](c1cccc(C#N)c1)n1cc(Cl)cc(C(N)=O)c1=N [(R)-9s]
- IC30 [1]: 0.015 µM
- inhibition [2]: 10%
- inhibition [3]: -5%

Structure (SMILES): C[C@@H](c1cccc(C#N)c1)n1cc(Cl)cc(C(N)=O)c1=N [(S)-9s]
- Ki [4]: 1.07 µM
- Ki [5]: > 1.2 µM (not active)
